Results: ChEMBL document CHEMBL4630909 (2021)

Experiments:
[1] = target: Muscarinic acetylcholine receptor M1 (Homo sapiens, UniProt P11229); assay: (§1) Cross screening panel
[2] = target: Muscarinic acetylcholine receptor M2 (Homo sapiens, UniProt P08172); assay: as §1
[3] = target: Nuclear receptor subfamily 1 group I member 2 (Homo sapiens, UniProt O75469); assay: as §1
[4] = target: Phosphatidylinositol 4,5-bisphosphate 3-kinase catalytic subunit gamma isoform (Homo sapiens, UniProt P48736); assay: as §1
[5] = target: Potassium voltage-gated channel subfamily A member 5 (Homo sapiens, UniProt P22460); assay: as §1
[6] = target: Prostaglandin G/H synthase 2 (Homo sapiens, UniProt P35354); assay: as §1
[7] = target: Sodium channel protein type 5 subunit alpha (Homo sapiens, UniProt Q14524); assay: as §1
[8] = target: Sodium-dependent noradrenaline transporter (Homo sapiens, UniProt P23975); assay: as §1
[9] = target: Sodium-dependent serotonin transporter (Homo sapiens, UniProt P31645); assay: as §1
[10] = target: Solute carrier organic anion transporter family member 1B1 (Homo sapiens, UniProt Q9Y6L6); assay: as §1
Substance-P receptor = Substance-P receptor (Homo sapiens, UniProt P25103); assay: as §1
Sequence of Substance-P receptor (P25103 whole entry): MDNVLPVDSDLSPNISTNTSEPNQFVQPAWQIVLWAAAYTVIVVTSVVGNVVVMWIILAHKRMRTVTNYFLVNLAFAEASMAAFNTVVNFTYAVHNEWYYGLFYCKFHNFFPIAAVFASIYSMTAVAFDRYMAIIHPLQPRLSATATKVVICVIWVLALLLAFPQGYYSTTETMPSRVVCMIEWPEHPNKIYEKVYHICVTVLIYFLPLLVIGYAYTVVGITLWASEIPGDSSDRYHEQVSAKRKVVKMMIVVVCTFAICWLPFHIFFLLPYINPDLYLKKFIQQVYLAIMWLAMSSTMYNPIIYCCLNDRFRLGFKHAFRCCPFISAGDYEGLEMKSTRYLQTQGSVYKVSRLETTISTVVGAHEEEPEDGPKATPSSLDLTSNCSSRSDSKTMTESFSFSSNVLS

[11] = target: Tyrosine-protein kinase Lck (Homo sapiens, UniProt P06239); assay: as §1
Sequence of Tyrosine-protein kinase Lck (P06239 whole entry): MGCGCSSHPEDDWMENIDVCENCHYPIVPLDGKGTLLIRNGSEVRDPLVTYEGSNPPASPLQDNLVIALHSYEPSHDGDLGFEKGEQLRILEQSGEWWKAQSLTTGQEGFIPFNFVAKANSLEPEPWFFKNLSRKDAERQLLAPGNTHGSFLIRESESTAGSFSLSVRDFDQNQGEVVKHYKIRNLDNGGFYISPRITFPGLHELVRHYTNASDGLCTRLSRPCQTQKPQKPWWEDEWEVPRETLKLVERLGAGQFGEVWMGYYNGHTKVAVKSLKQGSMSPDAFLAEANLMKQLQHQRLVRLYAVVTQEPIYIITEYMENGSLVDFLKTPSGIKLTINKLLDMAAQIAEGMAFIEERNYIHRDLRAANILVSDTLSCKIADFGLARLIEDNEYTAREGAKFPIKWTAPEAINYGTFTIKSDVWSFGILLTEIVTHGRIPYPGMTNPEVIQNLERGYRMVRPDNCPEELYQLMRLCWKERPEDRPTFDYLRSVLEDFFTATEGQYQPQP

Vasopressin V1a receptor = Vasopressin V1a receptor (Homo sapiens, UniProt P37288); assay: as §1
[12] = target: Voltage-dependent L-type calcium channel subunit alpha-1C (Homo sapiens, UniProt Q13936); assay: as §1
Sequence of Voltage-dependent L-type calcium channel subunit alpha-1C (Q13936 whole entry): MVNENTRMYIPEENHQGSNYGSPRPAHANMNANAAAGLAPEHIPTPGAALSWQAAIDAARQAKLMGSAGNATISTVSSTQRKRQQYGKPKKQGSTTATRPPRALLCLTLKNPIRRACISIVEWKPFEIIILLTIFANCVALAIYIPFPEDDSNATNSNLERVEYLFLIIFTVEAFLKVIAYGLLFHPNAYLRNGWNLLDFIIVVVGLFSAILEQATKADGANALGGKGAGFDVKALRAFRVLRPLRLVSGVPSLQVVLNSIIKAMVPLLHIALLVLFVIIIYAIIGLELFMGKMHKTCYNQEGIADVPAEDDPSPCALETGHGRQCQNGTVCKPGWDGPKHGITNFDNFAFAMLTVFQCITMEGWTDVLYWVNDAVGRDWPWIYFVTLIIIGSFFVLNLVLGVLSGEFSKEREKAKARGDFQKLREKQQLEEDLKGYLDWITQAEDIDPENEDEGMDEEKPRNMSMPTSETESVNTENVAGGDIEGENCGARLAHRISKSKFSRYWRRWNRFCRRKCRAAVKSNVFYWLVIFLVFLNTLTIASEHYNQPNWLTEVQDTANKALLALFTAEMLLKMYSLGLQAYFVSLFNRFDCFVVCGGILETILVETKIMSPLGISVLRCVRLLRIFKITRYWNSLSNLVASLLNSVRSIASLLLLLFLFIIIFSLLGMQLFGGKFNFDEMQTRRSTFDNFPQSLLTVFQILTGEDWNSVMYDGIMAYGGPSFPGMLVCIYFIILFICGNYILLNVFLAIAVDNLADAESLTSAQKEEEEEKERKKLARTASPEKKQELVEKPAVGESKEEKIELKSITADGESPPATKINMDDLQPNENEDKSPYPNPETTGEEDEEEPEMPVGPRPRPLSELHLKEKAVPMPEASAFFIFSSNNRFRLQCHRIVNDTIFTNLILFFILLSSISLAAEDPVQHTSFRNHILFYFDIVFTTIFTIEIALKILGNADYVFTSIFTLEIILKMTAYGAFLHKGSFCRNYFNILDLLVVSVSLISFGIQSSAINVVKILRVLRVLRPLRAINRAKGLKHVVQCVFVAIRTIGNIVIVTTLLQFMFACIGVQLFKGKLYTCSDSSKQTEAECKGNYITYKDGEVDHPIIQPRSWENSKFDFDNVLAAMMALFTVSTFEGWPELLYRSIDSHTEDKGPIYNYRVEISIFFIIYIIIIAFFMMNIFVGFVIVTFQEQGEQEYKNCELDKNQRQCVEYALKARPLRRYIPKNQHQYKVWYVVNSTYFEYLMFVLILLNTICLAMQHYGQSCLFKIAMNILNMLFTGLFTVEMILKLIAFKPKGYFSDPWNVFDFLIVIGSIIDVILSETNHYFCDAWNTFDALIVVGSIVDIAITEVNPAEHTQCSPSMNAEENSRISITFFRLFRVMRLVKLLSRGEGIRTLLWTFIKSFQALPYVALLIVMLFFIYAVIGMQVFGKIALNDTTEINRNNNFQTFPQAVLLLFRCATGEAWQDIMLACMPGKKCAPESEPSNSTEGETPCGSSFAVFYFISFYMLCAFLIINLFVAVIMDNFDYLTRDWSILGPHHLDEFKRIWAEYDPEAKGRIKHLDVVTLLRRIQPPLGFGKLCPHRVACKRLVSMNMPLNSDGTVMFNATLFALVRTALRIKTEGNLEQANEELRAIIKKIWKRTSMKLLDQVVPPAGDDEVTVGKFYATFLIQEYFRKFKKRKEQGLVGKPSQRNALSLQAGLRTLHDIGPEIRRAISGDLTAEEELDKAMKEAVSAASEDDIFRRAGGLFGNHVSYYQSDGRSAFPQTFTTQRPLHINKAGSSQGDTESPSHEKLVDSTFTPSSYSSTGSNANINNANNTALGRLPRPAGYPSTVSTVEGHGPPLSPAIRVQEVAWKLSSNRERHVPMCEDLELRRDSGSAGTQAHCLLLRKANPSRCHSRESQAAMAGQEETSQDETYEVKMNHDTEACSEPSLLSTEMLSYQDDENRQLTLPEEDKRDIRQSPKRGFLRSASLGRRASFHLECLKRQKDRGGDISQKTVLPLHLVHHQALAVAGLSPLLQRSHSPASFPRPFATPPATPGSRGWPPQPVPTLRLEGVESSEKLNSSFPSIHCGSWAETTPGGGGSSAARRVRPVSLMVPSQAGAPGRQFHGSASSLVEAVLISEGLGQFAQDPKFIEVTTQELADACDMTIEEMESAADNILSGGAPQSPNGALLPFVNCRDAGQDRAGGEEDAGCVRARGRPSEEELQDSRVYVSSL

[13] = target: cGMP-inhibited 3',5'-cyclic phosphodiesterase 3A (Homo sapiens, UniProt Q14432); assay: as §1
[14] = target: GABA-A receptor; anion channel; assay: as §1; assay type: protein-complex assay
[15] = target: Voltage-gated potassium channel, IKs; KCNQ1(Kv7.1)/KCNE1(MinK) (Homo sapiens, UniProt P15382+P51787); assay: as §1; assay type: protein-complex assay
[16] = target: GABA-A receptor; anion channel; assay: as §1; assay type: protein-complex assay; remark: listed apart in the source
[17] = target: 5-hydroxytryptamine receptor 1A (Homo sapiens) (UniProt P08908); conditions: Compound concentration 10.0 uM
[18] = target: 5-hydroxytryptamine receptor 1B (Homo sapiens, UniProt P28222); conditions: Compound concentration 10.0 uM
Sequence of 5-hydroxytryptamine receptor 1B (P28222 whole entry): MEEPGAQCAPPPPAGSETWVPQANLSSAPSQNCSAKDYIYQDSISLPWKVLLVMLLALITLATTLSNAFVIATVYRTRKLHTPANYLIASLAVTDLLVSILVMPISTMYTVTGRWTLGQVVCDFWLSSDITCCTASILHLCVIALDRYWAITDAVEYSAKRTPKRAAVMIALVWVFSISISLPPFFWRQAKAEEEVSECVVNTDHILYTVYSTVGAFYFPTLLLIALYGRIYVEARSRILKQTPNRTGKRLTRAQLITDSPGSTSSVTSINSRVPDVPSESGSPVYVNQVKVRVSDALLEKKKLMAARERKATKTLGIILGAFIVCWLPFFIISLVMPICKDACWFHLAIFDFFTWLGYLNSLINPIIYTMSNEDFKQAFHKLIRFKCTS

[19] = target: 5-hydroxytryptamine receptor 2A (Homo sapiens, UniProt P28223); conditions: Compound concentration 10.0 uM
[20] = target: 5-hydroxytryptamine receptor 2B (Homo sapiens) (UniProt P41595); conditions: Compound concentration 10.0 uM
[21] = target: 5-hydroxytryptamine receptor 2C (Homo sapiens) (UniProt P28335); conditions: Compound concentration 10.0 uM
[22] = target: 5-hydroxytryptamine receptor 3A (Homo sapiens) (UniProt P46098); conditions: Compound concentration 10.0 uM
[23] = target: 5-hydroxytryptamine receptor 5A (Homo sapiens) (UniProt P47898); conditions: Compound concentration 10.0 uM
[24] = target: 5-hydroxytryptamine receptor 6 (Homo sapiens) (UniProt P50406); conditions: Compound concentration 10.0 uM
[25] = target: 5-hydroxytryptamine receptor 7 (Homo sapiens) (UniProt P34969); conditions: Compound concentration 10.0 uM
D(1A) dopamine receptor = D(1A) dopamine receptor (Homo sapiens, UniProt P21728); conditions: Compound concentration 10.0 uM
D(2) dopamine receptor = D(2) dopamine receptor (Homo sapiens, UniProt P14416); conditions: Compound concentration 10.0 uM
[26] = target: D(3) dopamine receptor (Homo sapiens) (UniProt P35462); conditions: Compound concentration 10.0 uM
[27] = target: D(4) dopamine receptor (Homo sapiens) (UniProt P21917); conditions: Compound concentration 10.0 uM
[28] = target: D(1B) dopamine receptor (Homo sapiens) (UniProt P21918); conditions: Compound concentration 10.0 uM
Mu-type opioid receptor = Mu-type opioid receptor (Homo sapiens, UniProt P35372); conditions: Compound concentration 10.0 uM
[29] = target: Delta-type opioid receptor (Homo sapiens) (UniProt P41143); conditions: Compound concentration 10.0 uM
[30] = target: Kappa-type opioid receptor (Homo sapiens, UniProt P41145); conditions: Compound concentration 10.0 uM
[31] = target: T1, GABA-A receptor; anion channel (Rattus norvegicus) (UniProt O09028+P15431+P18506+P18508+P19969+P20236+P23574+P23576+P28471+P28473+P30191+P62813+P63079+P63138+Q91ZM7+Q9ES14); conditions: Compound concentration 10.0 uM
[32] = target: Histamine H2 receptor (Homo sapiens) (UniProt P25021); conditions: Compound concentration 10.0 uM
[33] = target: Histamine H3 receptor (Homo sapiens) (UniProt Q9Y5N1); conditions: Compound concentration 10.0 uM
[34] = target: Histamine H4 receptor (Homo sapiens) (UniProt Q9H3N8); conditions: Compound concentration 10.0 uM
[35] = target: Alpha-1A adrenergic receptor (Homo sapiens) (UniProt P35348); conditions: Compound concentration 10.0 uM
[36] = target: Alpha-1B adrenergic receptor (Homo sapiens) (UniProt P35368); conditions: Compound concentration 10.0 uM
[37] = target: Alpha-2A adrenergic receptor (Homo sapiens) (UniProt P08913); conditions: Compound concentration 10.0 uM
Sequence of Alpha-2A adrenergic receptor (Homo sapiens) (P08913 whole entry): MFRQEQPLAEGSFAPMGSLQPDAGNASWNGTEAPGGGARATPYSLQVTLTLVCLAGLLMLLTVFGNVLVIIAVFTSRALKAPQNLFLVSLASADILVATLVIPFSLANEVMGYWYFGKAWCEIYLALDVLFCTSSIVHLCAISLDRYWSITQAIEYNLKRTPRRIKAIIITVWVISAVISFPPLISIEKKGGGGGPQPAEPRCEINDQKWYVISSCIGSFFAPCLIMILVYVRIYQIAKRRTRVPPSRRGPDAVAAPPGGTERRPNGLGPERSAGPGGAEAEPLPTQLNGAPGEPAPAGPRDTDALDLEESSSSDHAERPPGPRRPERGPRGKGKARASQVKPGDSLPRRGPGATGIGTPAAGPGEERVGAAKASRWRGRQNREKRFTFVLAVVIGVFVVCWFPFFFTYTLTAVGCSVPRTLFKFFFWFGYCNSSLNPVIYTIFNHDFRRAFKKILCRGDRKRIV

[38] = target: Alpha-2B adrenergic receptor (Homo sapiens) (UniProt P18089); conditions: Compound concentration 10.0 uM
[39] = target: Alpha-2C adrenergic receptor (Homo sapiens) (UniProt P18825); conditions: Compound concentration 10.0 uM
[40] = target: Beta-1 adrenergic receptor (Homo sapiens) (UniProt P08588); conditions: Compound concentration 10.0 uM
[41] = target: Beta-2 adrenergic receptor (Homo sapiens, UniProt P07550); conditions: Compound concentration 10.0 uM
[42] = target: Muscarinic acetylcholine receptor M2 (Homo sapiens) (UniProt P08172); conditions: Compound concentration 10.0 uM
Sequence of Muscarinic acetylcholine receptor M2 (Homo sapiens) (P08172 whole entry): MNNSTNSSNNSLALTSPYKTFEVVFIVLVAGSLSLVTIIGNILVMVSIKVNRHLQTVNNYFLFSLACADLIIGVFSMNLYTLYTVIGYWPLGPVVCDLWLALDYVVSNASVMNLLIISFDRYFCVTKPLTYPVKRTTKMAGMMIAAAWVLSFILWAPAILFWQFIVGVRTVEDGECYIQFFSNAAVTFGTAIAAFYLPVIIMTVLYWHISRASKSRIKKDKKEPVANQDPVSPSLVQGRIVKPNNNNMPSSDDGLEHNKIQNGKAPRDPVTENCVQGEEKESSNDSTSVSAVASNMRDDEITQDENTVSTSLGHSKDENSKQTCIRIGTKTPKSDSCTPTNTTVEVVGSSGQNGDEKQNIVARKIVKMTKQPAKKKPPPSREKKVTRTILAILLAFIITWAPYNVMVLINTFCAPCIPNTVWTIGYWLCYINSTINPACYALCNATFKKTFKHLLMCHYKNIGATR

[43] = target: Muscarinic acetylcholine receptor M3 (Homo sapiens) (UniProt P20309); conditions: Compound concentration 10.0 uM
[44] = target: Muscarinic acetylcholine receptor M4 (Homo sapiens) (UniProt P08173); conditions: Compound concentration 10.0 uM
[45] = target: Muscarinic acetylcholine receptor M5 (Homo sapiens) (UniProt P08912); conditions: Compound concentration 10.0 uM
[46] = target: Beta-3 adrenergic receptor (Homo sapiens) (UniProt P13945); conditions: Compound concentration 10.0 uM
[47] = target: T1, GABA-A receptor; anion channel (Rattus norvegicus); conditions: Compound concentration 10.0 uM; remark: listed apart in the source
Rattus norvegicus = species: Rattus norvegicus; conditions: Compound concentration 10.0 uM
[48] = target: Alpha-1D adrenergic receptor (Homo sapiens) (UniProt P25100); conditions: Compound concentration 10.0 uM
[49] = target: Sigma intracellular receptor 2 (Homo sapiens) (UniProt Q5BJF2); conditions: Compound concentration 10.0 uM

Sequence of Muscarinic acetylcholine receptor M2 (P08172 whole entry): as above
Sequence of Muscarinic acetylcholine receptor M1 (P11229 whole entry): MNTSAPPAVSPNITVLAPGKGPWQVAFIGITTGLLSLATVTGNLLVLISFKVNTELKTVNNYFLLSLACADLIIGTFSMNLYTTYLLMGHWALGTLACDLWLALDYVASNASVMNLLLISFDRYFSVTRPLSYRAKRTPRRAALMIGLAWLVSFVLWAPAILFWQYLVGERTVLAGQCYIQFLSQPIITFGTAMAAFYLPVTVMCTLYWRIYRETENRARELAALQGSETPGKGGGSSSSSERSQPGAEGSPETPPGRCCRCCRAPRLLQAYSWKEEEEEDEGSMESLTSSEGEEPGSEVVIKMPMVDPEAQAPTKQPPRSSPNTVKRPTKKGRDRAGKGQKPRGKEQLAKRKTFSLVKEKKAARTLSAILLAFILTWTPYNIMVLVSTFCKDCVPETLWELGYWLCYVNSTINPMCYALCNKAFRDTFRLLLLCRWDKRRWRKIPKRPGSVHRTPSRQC

Structure (SMILES): CNC(=O)c1cc(C(=O)NC2CC2)cn(Cc2ccccc2)c1=O [GSK620]
- IC50 [1]: > 50.1 µM
- EC50 [2]: > 50.1 µM
- IC50 [2]: > 50.1 µM
- EC50 [3]: > 50.1 µM
- IC50 [4]: > 31.6 µM
- IC50 [5]: > 50.1 µM
- IC50 [6]: > 100 µM
- IC50 [7]: > 100 µM
- IC50 [8]: > 100 µM
- IC50 [9]: > 100 µM
- IC50 [10]: > 50.1 µM
- IC50 (Substance-P receptor): > 25.1 µM
- IC50 [11]: > 31.6 µM
- IC50 (Vasopressin V1a receptor): > 50.1 µM
- IC50 [12]: 79.4 µM
- IC50 [13]: > 100 µM
- pEC50 [14]: < 4
- pIC50 [14]: < 4
- IC50 [15]: > 25.1 µM
- pEC50 [16]: < 4
- inhibition [17]: 6.03%
- inhibition [18]: -3.67%
- inhibition [19]: -8.9%
- inhibition [20]: 16.5%
- inhibition [21]: 32.1%
- inhibition [22]: 14.3%
- inhibition [23]: -4.41%
- inhibition [24]: 10.9%
- inhibition [25]: 13.6%
- inhibition (D(1A) dopamine receptor): 6.94%
- inhibition (D(2) dopamine receptor): -2.98%
- inhibition [26]: 1.54%
- inhibition [27]: 6.96%
- inhibition [28]: 18.6%
- inhibition (Mu-type opioid receptor): 13.5%
- inhibition [29]: -2.78%
- inhibition [30]: 39.9%
- inhibition [31]: 8.55%
- inhibition [32]: -9.14%
- inhibition [33]: -8.16%
- inhibition [34]: 16.1%
- inhibition [35]: -0.64%
- inhibition [36]: 7.27%
- inhibition [37]: -4.53%
- inhibition [38]: 5.2%
- inhibition [39]: 0.69%
- inhibition [40]: -6.19%
- inhibition [41]: 16.5%
- inhibition [42]: 13.2%
- inhibition [43]: 21.4%
- inhibition [44]: 0.52%
- inhibition [45]: -5.05%
- inhibition [46]: 18.6%
- inhibition [47]: 28.2%
- inhibition (Rattus norvegicus): 7.71%
- inhibition [48]: 2.36%
- inhibition [49]: 7.83%
